The subject of experiment [1] is Escherichia coli K-12 AG100, its Mar mutant AG112 and derived fluoroquinolone-resistant mutants (acrAB+). As to the kind of experiment: MIC by broth microdilution, acrAB+ strains. It counts as cell-based. The conditions noted are these: Escherichia coli. How it is done: Selection of fluoroquinolone-resistant mutants. 1-AG100, 2°-AG100, 3*-AG100, 4*-AG100 and 1′-AG112, 2′-AG112, 3′-AG112 were sequential step mutants derived from AG 100 and AG112, respectively, on solid media. For each step, about 10^11 cells of an overnight culture were plated on several LB agar plates supplemented with increasing concentrations of OFL. Single colonies were further purified on OFL-supplemented agar plates. Mutant 2°-AG100 came out of one series, while mutants 3*- and 4*-AG100 came from a second series.
(§1) Susceptibility testing. MICs of selected antimicrobial agents were determined by a standard broth microdilution procedure with cation-adjusted Mueller-Hinton broth (Becton Dickinson, Cockeysville, Md.) and an inoculum of 5×10^5 CFU/ml according to NCCLS performance and interpretive guidelines (NCCLS. 1997. Methods for dilution antimicrobial susceptibility. Tests for bacteria that grow aerobically—Fourth Edition; Approved Standard. NCCLS document M7-A4 (ISBN 1-56238-309-4). NCCLS, 940 West Valley Road, Suite 1400, Wayne, Pa. 19087). Antimicrobial agents on the commercially available microtiter plates (Merlin Diagnostics GmbH, Bornheim, Germany) included the FQs ciprofloxacin (CIP), enoxacin, fleroxacin, nor-flo-xacin, ofloxacin (OFL), pefloxacin, sparfloxacin (SPX), and trovafloxacin (TVA). They also included tetracycline (TET), chloramphenicol (CML), trimethoprim (TMP), cefoxitin (CFOX), cefaclor, cefixim and loracarbef. MICs of bile salts were determined by a broth macrodilution procedure: sodium cholate and sodium deoxycholate were serially diluted twofold in LB broth and tubes inoculated at 5×10^5 CFU/ml. MICs of both antibiotics and bile salts were determined twice in independent experiments with reproducible results.
On the technique in general: Broth dilution looks for growth in wells or tubes with falling amounts of substance.

For experiment [2], the system named is Escherichia coli AG100, AG112 and derived fluoroquinolone-resistant mutants with ΔacrAB. As to the kind of experiment: MIC by broth microdilution, AcrAB-deleted strains. The class given is cell-based. Conditions: Escherichia coli. How it is done:
as §1
P1 transduction. […] DNA sequencing.

Experiment [3] relates to E. coli. Conditions: cited from earlier work.
The mark [4] stands for this setting: strain 1-AG100, acrAB+, read-out: MIC.
Where [5] appears, read: strain 1-AG112 (1′-AG112), acrAB+, read-out: MIC.
[6] abbreviates: strain 2-AG100 (2°-AG100), acrAB+, read-out: MIC.
[7] abbreviates: strain 2-AG112 (2′-AG112), acrAB+, read-out: MIC.
Setting [8] is: strain 3*-AG100, acrAB+, read-out: MIC.
The mark [9] stands for this setting: strain 3-AG112 (3′-AG112), acrAB+, read-out: MIC.
Where [10] appears, read: strain 4*-AG100, acrAB+, read-out: MIC.
[11] abbreviates: strain AG100, acrAB+, read-out: MIC.
[12] abbreviates: strain AG112 (Mar mutant), acrAB+.
The mark [13] stands for this setting: strain 1-AG112 (1′-AG112), ΔacrAB.
Setting [14] is: strain 2-AG100 (2°-AG100), ΔacrAB.
[15] abbreviates: strain 2-AG112 (2′-AG112), ΔacrAB.
[16] abbreviates: strain 3-AG112 (3′-AG112), ΔacrAB.

Values after ≈ are worked out from the molar mass of the structure shown. Like-named read-outs stand apart in the source and are kept apart here.

`C[C@@H]1CN(c2c(F)c(N)c3c(=O)c(C(=O)O)cn(C4CC4)c3c2F)C[C@H](C)N1` [SPX, sparfloxacin]: the MIC (as a rule, the least concentration at which growth counts as inhibited) was determined as 0.125 µg/mL (≈ 0.319 µM) in experiment [1] (setting [4]); 0.25 µg/mL (≈ 0.637 µM) in experiment [1] (setting [5]); 0.25 µg/mL (≈ 0.637 µM) in experiment [1] (setting [6]); 1 µg/mL (≈ 2.55 µM) in experiment [1] (setting [7]); 0.5 µg/mL (≈ 1.27 µM) in experiment [1] (setting [8]); 2 µg/mL (≈ 5.1 µM) in experiment [1] (setting [9]). For the same compound, the MIC in experiment [1] (setting [10]) was 2 µg/mL (≈ 5.1 µM); in experiment [1] (setting [11]) it was at most 0.015 µg/mL; in experiment [1] (setting [12]), 0.06 µg/mL (≈ 0.153 µM); in experiment [2] (all ΔacrAB mutants, below detection), under 0.015 µg/mL; in experiment [2] (strain 1-AG100, ΔacrAB), at most 0.015 µg/mL; in experiment [2] (setting [13]) it was at most 0.015 µg/mL. Moreover, the MIC is at most 0.015 µg/mL in experiment [2] (setting [14]); at most 0.015 µg/mL in experiment [2] (setting [15]); at most 0.015 µg/mL in experiment [2] (strain 3*-AG100, ΔacrAB); at most 0.015 µg/mL in experiment [2] (setting [16]); at most 0.015 µg/mL in experiment [2] (strain 4*-AG100, ΔacrAB); at most 0.015 µg/mL in experiment [2] (strain AG100, ΔacrAB). In experiment [2] (strain AG112, ΔacrAB), this compound gave an MIC of at most 0.015 µg/mL.

In the case of `CN(C)[C@@H]1C(O)=C(C(N)=O)C(=O)[C@@]2(O)C(O)=C3C(=O)c4c(O)cccc4[C@@](C)(O)[C@H]3C[C@@H]12` [TET, tetracycline], the minimum inhibitory concentration (MIC) in experiment [1] (setting [4]) was found to be 2 µg/mL (≈ 4.5 µM); in experiment [1] (setting [5]) it was 4 µg/mL (≈ 9 µM); in experiment [1] (setting [6]) it was 2 µg/mL (≈ 4.5 µM); in experiment [1] (setting [7]) it was 16 µg/mL (≈ 36 µM); in experiment [1] (setting [8]), 8 µg/mL (≈ 18 µM); in experiment [1] (setting [9]) it was 8 µg/mL (≈ 18 µM). In addition, the MIC in experiment [1] (setting [10]) worked out at 8 µg/mL (≈ 18 µM); in experiment [1] (setting [11]), 1 µg/mL (≈ 2.25 µM); in experiment [1] (setting [12]), 4 µg/mL (≈ 9 µM); in experiment [2] (strain 1-AG100, ΔacrAB) it was 1 µg/mL (≈ 2.25 µM); in experiment [2] (setting [13]), 0.5 µg/mL (≈ 1.13 µM); in experiment [2] (setting [14]) it was 0.5 µg/mL (≈ 1.13 µM). The MIC in experiment [2] (setting [15]) came out at 1 µg/mL (≈ 2.25 µM); in experiment [2] (strain 3*-AG100, ΔacrAB), 1 µg/mL (≈ 2.25 µM); in experiment [2] (setting [16]) it was 0.5 µg/mL (≈ 1.13 µM); in experiment [2] (strain 4*-AG100, ΔacrAB), 1 µg/mL (≈ 2.25 µM); in experiment [2] (strain AG100, ΔacrAB), 0.5 µg/mL (≈ 1.13 µM); in experiment [2] (strain AG112, ΔacrAB) it was 1 µg/mL (≈ 2.25 µM).

Take `N[C@@H]1[C@H]2CN(c3nc4c(cc3F)c(=O)c(C(=O)O)cn4-c3ccc(F)cc3F)C[C@@H]12` [TVA, trovafloxacin]: the MIC in experiment [1] (setting [4]) was found to be 0.25 µg/mL (≈ 0.6 µM); in experiment [1] (setting [5]) it was 0.5 µg/mL (≈ 1.2 µM); in experiment [1] (strain 2-AG100 (2°-AG100), acrAB+), 0.25 µg/mL (≈ 0.6 µM); in experiment [1] (setting [7]), 1 µg/mL (≈ 2.4 µM); in experiment [1] (setting [8]), 0.5 µg/mL (≈ 1.2 µM); in experiment [1] (setting [9]) it was 2 µg/mL (≈ 4.8 µM). In addition, the MIC in experiment [1] (setting [10]) amounted to 2 µg/mL (≈ 4.8 µM); in experiment [1] (setting [11]) it was 0.06 µg/mL (≈ 0.144 µM); in experiment [1] (setting [12]) it was 0.125 µg/mL (≈ 0.3 µM); in experiment [2] (strain 1-AG100, ΔacrAB), 0.06 µg/mL (≈ 0.144 µM); in experiment [2] (setting [13]), 0.06 µg/mL (≈ 0.144 µM); in experiment [2] (setting [14]), 0.06 µg/mL (≈ 0.144 µM). Besides, the minimal inhibitory concentration (MIC) is 0.06 µg/mL (≈ 0.144 µM) in experiment [2] (setting [15]); 0.06 µg/mL (≈ 0.144 µM) in experiment [2] (strain 3*-AG100, ΔacrAB); 0.06 µg/mL (≈ 0.144 µM) in experiment [2] (setting [16]); 0.125 µg/mL (≈ 0.3 µM) in experiment [2] (strain 4*-AG100, ΔacrAB); at most 0.03 µg/mL in experiment [2] (strain AG100, ΔacrAB); at most 0.03 µg/mL in experiment [2] (strain AG112, ΔacrAB).

In the case of `Oc1cc(Cl)ccc1Oc1ccc(Cl)cc1Cl` [triclosan], in experiment [3] (deletion of acrAB, all strains), the “Reduction of resistance to triclosan” value is on record as 10 fold. The “Increase of resistance to triclosan” value in experiment [3] (mutation in enoyl reductase (fabI)) is on record as “about 100 fold”; in experiment [3] (overexpression of acrAB, marA, or soxS) it was “about two-fold”.
